How the values were obtained:
LR34res [1] = biological target: T1, LR34res (Triticum aestivum, UniProt A0A9R1MFS8); assay: inhibition of 3H-ABA uptake in yeast YMM12; type: cell-based; settings: 20 min preincubation, then 10 min with labelled ABA; general ABC transporter inhibitor; allele in this panel not stated, taken as LR34res
T1 construct: gene CFC21_107174; full-length cDNA from p6U:cLr34res, C-terminal HA tag, in pNEV-N; expressed in Saccharomyces cerevisiae W303 and YMM12; predicted c; 160 kDa
T1 sequence (A0A9R1MFS8 1-1401): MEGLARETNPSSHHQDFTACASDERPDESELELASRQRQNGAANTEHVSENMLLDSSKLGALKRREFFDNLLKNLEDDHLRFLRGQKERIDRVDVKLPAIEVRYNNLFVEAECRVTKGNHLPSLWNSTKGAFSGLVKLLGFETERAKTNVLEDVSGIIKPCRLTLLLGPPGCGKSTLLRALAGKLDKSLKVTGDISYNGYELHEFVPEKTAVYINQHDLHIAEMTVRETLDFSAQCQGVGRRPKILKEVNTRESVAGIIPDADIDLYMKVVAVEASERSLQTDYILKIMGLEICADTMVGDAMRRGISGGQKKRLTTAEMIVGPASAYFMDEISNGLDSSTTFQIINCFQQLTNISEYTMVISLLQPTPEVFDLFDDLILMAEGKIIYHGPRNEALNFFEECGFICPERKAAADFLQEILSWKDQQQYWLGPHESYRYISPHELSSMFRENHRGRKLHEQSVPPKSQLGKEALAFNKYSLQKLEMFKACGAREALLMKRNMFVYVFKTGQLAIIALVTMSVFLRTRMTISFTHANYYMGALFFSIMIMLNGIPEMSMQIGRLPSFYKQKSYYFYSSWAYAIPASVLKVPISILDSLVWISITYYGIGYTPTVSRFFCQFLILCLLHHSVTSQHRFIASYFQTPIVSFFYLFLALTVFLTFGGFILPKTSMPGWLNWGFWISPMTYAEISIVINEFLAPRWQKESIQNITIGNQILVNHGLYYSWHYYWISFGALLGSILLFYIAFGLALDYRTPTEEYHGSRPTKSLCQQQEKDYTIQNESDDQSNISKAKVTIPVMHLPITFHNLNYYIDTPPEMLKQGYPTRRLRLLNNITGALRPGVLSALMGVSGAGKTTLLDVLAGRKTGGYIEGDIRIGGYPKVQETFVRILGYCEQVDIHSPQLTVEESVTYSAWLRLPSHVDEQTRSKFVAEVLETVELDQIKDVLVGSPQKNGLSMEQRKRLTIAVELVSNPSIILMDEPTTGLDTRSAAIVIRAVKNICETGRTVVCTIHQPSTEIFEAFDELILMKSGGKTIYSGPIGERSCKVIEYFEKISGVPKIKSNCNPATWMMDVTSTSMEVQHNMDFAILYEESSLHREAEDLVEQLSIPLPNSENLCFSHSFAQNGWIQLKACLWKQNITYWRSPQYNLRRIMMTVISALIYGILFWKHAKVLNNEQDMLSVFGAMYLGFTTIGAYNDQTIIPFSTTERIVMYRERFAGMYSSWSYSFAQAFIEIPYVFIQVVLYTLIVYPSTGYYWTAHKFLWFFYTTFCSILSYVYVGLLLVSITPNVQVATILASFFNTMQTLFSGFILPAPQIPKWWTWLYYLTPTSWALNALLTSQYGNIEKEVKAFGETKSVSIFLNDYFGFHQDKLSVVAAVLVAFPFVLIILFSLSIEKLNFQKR

LR34res [2] = biological target: T1, LR34res; assay: competition of 3H-ABA uptake in LR34res-expressing yeast; type: cell-based; settings: 50 nM labelled and unlabelled ABA mixture, 10 min, pH 6.3; competition for substrate binding suggested, not proven

COc1ccc(Cl)cc1C(=O)NCCc1ccc(S(=O)(=O)NC(=O)NC2CCCCC2)cc1 [glibenclamide]
relative 3H-ABA accumulation (% of control) (LR34res [1]): The ABC transporter inhibitor glibenclamide

C=C[C@](C)(O)CC[C@@H]1[C@@]2(C)CCCC(C)(C)[C@@H]2CC[C@@]1(C)O [sclareol]
% reduction of 3H-ABA uptake at 3 μM (LR34res [2]): ~ 40%
